The assay concerns MCH receptors. Briefly: MCH receptor activity class (method not given).
[1] abbreviates: class by percent of control at 10^−7 M or IC50.
[2] abbreviates: MCH receptor activity class 1-3 (percent of control at 10^-7 M or IC50).
[3] abbreviates: class by percent of control at 10^-7 M or IC50.
The mark [4] stands for this setting: activity class per percent of control at 10^-7 M or IC50.
Where [5] appears, read: MCH receptor, class by percent of control at 10^-7 M or IC50.
[6] abbreviates: activity class 1-3: percent of control at 10^-7 M or IC50.

In the case of `COc1cccc(OCC(=O)N[C@H]2CC[C@@H](Nc3ncc(C)c(N(C)C)n3)CC2)c1` [compound 2877, N-(cis-4-{[4-(dimethylamino)-5-methylpyrimidin-2-yl]amino}cyclohexyl)-2-(3-methoxyphenoxy)acetamide], under setting [1], the class is 1 (Class 1: The value of percent of control at 10^−7 M was less than 40% or the value of IC50 was less than 50 nM.).
As for `CN(C)c1ccnc(N[C@H]2CC[C@@H](NC(=S)Nc3ccccc3-c3ccccc3)CC2)n1` [compound 2335], the class under setting [2] is listed as 3 (Class 3 The value of percent of control at 10^−7 M was more than 60% or the value of IC50 was more than 200 nM.).
Regarding `CN(C)c1ccnc(N[C@H]2CC[C@@H](NC(=O)Cc3cccs3)CC2)n1` [compound 271], under setting [3], the class is 3 (Class 3 The value of percent of control at 10^−7 M was more than 60% or the value of IC50 was more than 200 nM.).
In the case of `Cc1cnc(N[C@H]2CC[C@@H](NC(=O)c3ccc(Br)cc3)CC2)nc1N(C)C` [compound 2911, 4-bromo-N-(cis-4-{[4-(dimethylamino)-5-methylpyrimidin-2-yl]amino}cyclohexyl)benzamide], the class under setting [1] was 1 (Class 1: The value of percent of control at 10^−7 M was less than 40% or the value of IC50 was less than 50 nM.).
`CCN(CC)c1ccc(CNC[C@H]2CC[C@@H](Nc3nc4c(c(N(C)C)n3)CCCC4)CC2)cc1` [compound 1392]: under setting [3], the class is on record as 2 (Class 2: The value of percent of control at 10^−7 M was from 40% to 60% or the value of IC′50 was from 50 nM to 200 nM.).
Same read-out and setting: in the case of `CN(C)c1nc(N[C@H]2CC[C@@H](NCc3c[nH]c4ccccc34)CC2)nc2c1CCCC2` [compound 1328] it was 3 (Class 3 The value of percent of control at 10^−7 M was more than 60% or the value of IC50 was more than 200 nM.); in that of `CCOc1c(Br)cc(Br)cc1CNC[C@H]1CC[C@@H](Nc2cc(N(C)C)c3ccccc3n2)CC1` [compound 1204], 3 (Class 3 The value of percent of control at 10^−7 M was more than 60% or the value of IC50 was more than 200 nM.).
For `COc1ccc(CNC[C@H]2CC[C@@H](Nc3cc(N(C)C)c4ccccc4n3)CC2)c(OC)c1` [compound 1131], under setting [4], the class is on record as 3 (Class 3 The value of percent of control at 10^−7 M was more than 60% or the value of IC50 was more than 200 nM.).
Regarding `CN(C)c1ccc(/N=N/c2ccc(NC(=S)N[C@H]3CC[C@@H](Nc4nc5c(c(N(C)C)n4)CCCC5)CC3)cc2)cc1` [compound 2077], the class under setting [5] is given as 3 (Class 3 The value of percent of control at 10^−7 M was more than 60% or the value of IC50 was more than 200 nM.).
Regarding `CN(C)c1cc(N[C@H]2CC[C@@H](NC(=S)Nc3ccc(C#N)cc3)CC2)nc2ccccc12` [compound 2168], under setting [3], the class is 3 (Class 3 The value of percent of control at 10^−7 M was more than 60% or the value of IC50 was more than 200 nM.).
Regarding `Cc1cc(Cl)ccc1NC(=O)N[C@H]1CC[C@@H](Nc2cc(N(C)C)c3ccccc3n2)CC1` [compound 2154], the class under setting [3] is reported as 3 (Class 3 The value of percent of control at 10^−7 M was more than 60% or the value of IC50 was more than 200 nM.).
On to `COc1cccc(CNC(=S)N[C@H]2CC[C@@H](Nc3nccc(N(C)C)n3)CC2)c1OC` [compound 2333], for which the class under setting [2] was 3 (Class 3 The value of percent of control at 10^−7 M was more than 60% or the value of IC50 was more than 200 nM.).
As for `CN(C)c1nc(N[C@H]2CC[C@@H](NC(=S)Nc3ccc4c(c3)OCCO4)CC2)nc2c1CCCC2` [compound 1784], the class under setting [3] is 3 (Class 3 The value of percent of control at 10^−7 M was more than 60% or the value of IC50 was more than 200 nM.).
With `Cc1c(NC(=O)NC[C@H]2CC[C@@H](Nc3nc4c(c(N(C)C)n3)CCCC4)CC2)cccc1[N+](=O)[O-]` [compound 2473], the class under setting [2] is reported as 3 (Class 3 The value of percent of control at 10^−7 M was more than 60% or the value of IC50 was more than 200 nM.).
`CN(C)c1nc(N[C@H]2CC[C@@H](NC(=O)Nc3c(F)cc(F)cc3Br)CC2)nc2c1CCCC2` [compound 1852]: under setting [3], the class is on record as 3 (Class 3 The value of percent of control at 10^−7 M was more than 60% or the value of IC50 was more than 200 nM.).
For `CN(C)c1cc(N[C@H]2CC[C@@H](NC(=O)Nc3ccc(F)cc3F)CC2)nc2ccccc12` [compound 2091], under setting [3], the class is 3 (Class 3 The value of percent of control at 10^−7 M was more than 60% or the value of IC50 was more than 200 nM.).
On the same count and under the same terms, the value for `COc1ccc(Cl)cc1CNC[C@H]1CC[C@@H](Nc2cc(N(C)C)c3ccccc3n2)CC1` [compound 1474] was 3 (Class 3 The value of percent of control at 10^−7 M was more than 60% or the value of IC50 was more than 200 nM.).
Take `COc1cccc(C(=O)N[C@H]2CC[C@@H](Nc3nc(C)cc(N(C)C)n3)CC2)c1` [compound 2984, N-(cis-4-{[4-(dimethylamino)-6-methylpyrimidin-2-yl]amino}cyclohexyl)-3-methoxybenzamide]: the class under setting [1] is given as 1 (Class 1: The value of percent of control at 10^−7 M was less than 40% or the value of IC50 was less than 50 nM.).
Regarding `CCOc1cccc(CN[C@H]2CC[C@@H](Nc3nccc(N(C)C)n3)CC2)c1` [compound 1520], under setting [6], the class was 3 (Class 3 The value of percent of control at 10^−7 M was more than 60% or the value of IC50 was more than 200 nM.).
In the case of `CN(C)c1nc(N[C@H]2CC[C@@H](NC(=S)NCC3CC3)CC2)nc2c1CCCC2` [compound 2068], the class under setting [5] was 3 (Class 3 The value of percent of control at 10^−7 M was more than 60% or the value of IC50 was more than 200 nM.).
As to `CN(C)c1nc(N[C@H]2CC[C@@H](NC(=O)c3scc(S(C)(=O)=O)c3Cl)CC2)nc2c1CCCC2` [compound 1040], under setting [4], the class is given as 3 (Class 3 The value of percent of control at 10^−7 M was more than 60% or the value of IC50 was more than 200 nM.).
As to `CN(C)c1nc(N[C@H]2CC[C@@H](NC(=O)c3ccc([N+](=O)[O-])cc3F)CC2)nc2c1CCCC2` [compound 1049], the class under setting [4] was 3 (Class 3 The value of percent of control at 10^−7 M was more than 60% or the value of IC50 was more than 200 nM.).
Consider `Cc1cc(CNC[C@H]2CC[C@@H](Nc3cc(N(C)C)c4ccccc4n3)CC2)ccc1O` [compound 1194], for which the class under setting [3] was 3 (Class 3 The value of percent of control at 10^−7 M was more than 60% or the value of IC50 was more than 200 nM.).
For the molecule `COC(=O)[C@H](CCSC)NC(=O)N[C@H]1CC[C@@H](Nc2nccc(N(C)C)n2)CC1` (relative stereo) [compound 2219], under setting [3], the class is on record as 3 (Class 3 The value of percent of control at 10^−7 M was more than 60% or the value of IC50 was more than 200 nM.).
As to `CN(C)c1nc(N[C@H]2CC[C@@H](NC(=O)c3cccc(C(=O)c4ccccc4)c3)CC2)nc2c1CCCC2` [compound 1009], under setting [4], the class was 3 (Class 3 The value of percent of control at 10^−7 M was more than 60% or the value of IC50 was more than 200 nM.).
For `Cc1nc(N[C@H]2CC[C@@H](NC(=O)c3cccc(Br)c3)CC2)nc(N(C)C)c1C` [compound 2839, 3-bromo-N-(cis-4-{[4-(dimethylamino)-5,6-dimethylpyrimidin-2-yl]amino}cyclohexyl)benzamide], the class under setting [1] was 1 (Class 1: The value of percent of control at 10^−7 M was less than 40% or the value of IC50 was less than 50 nM.).
`CN(C)c1cc(N[C@H]2CC[C@@H](NC(=O)[C@H](CCCCNC(=O)c3ccccc3)NC(=O)c3ccccc3)CC2)nc2ccccc12` (relative stereo) [compound 704]: the class under setting [3] is listed as 3 (Class 3 The value of percent of control at 10^−7 M was more than 60% or the value of IC50 was more than 200 nM.).
Regarding `CN(C)c1ccnc(N[C@H]2CC[C@@H](NC(=O)Cc3ccccc3Br)CC2)n1` [compound 298], the class under setting [3] is listed as 3 (Class 3 The value of percent of control at 10^−7 M was more than 60% or the value of IC50 was more than 200 nM.).
In the case of `Cc1cccc(NC(=S)N[C@H]2CC[C@@H](Nc3cc(N(C)C)c4ccccc4n3)CC2)c1C` [compound 2299], the class under setting [2] is given as 3 (Class 3 The value of percent of control at 10^−7 M was more than 60% or the value of IC50 was more than 200 nM.).
As to `COc1cccc(CC(=O)NC[C@H]2CC[C@@H](Nc3nccc(N(C)C)n3)CC2)c1` [compound 412], the class under setting [3] is 2 (Class 2: The value of percent of control at 10^−7 M was from 40% to 60% or the value of IC′50 was from 50 nM to 200 nM.).
As to `CN(C)c1ccnc(N[C@H]2CC[C@@H](NC(=O)OCC(Cl)(Cl)Cl)CC2)n1` [compound 1638], under setting [6], the class is given as 3 (Class 3 The value of percent of control at 10^−7 M was more than 60% or the value of IC50 was more than 200 nM.).
On to `CN(C)c1ccnc(N[C@H]2CC[C@@H](NC(=S)Nc3ccc(Cl)cc3C(F)(F)F)CC2)n1` [compound 2339], for which, under setting [2], the class is on record as 3 (Class 3 The value of percent of control at 10^−7 M was more than 60% or the value of IC50 was more than 200 nM.).
With `CN(C)c1cc(N[C@H]2CC[C@@H](CNC(=O)CC3CCCC3)CC2)nc2ccccc12` [compound 202], under setting [5], the class is 3 (Class 3 The value of percent of control at 10^−7 M was more than 60% or the value of IC50 was more than 200 nM.).
Regarding `CN(C)c1nc(N[C@H]2CC[C@@H](NC(=O)Nc3ccc4ccccc4c3)CC2)nc2c1CCCC2` [compound 1863], the class under setting [3] is 3 (Class 3 The value of percent of control at 10^−7 M was more than 60% or the value of IC50 was more than 200 nM.).
Same read-out and setting: in the case of `CN(C)c1ccnc(N[C@H]2CC[C@@H](NC(=S)Nc3ccc(C#N)cc3)CC2)n1` [compound 2258] it was 2 (Class 2: The value of percent of control at 10^−7 M was from 40% to 60% or the value of IC′50 was from 50 nM to 200 nM.); in that of `CN(C)c1ccnc(N[C@H]2CC[C@@H](NC(=O)C(CC(=O)c3ccc(Cl)cc3)SCc3ccc(Cl)cc3)CC2)n1` (relative stereo) [compound 881], 3 (Class 3 The value of percent of control at 10^−7 M was more than 60% or the value of IC50 was more than 200 nM.).
On the same count and under the same terms, in the case of `Cc1cccc(CNC[C@H]2CC[C@@H](Nc3nc4c(c(N(C)C)n3)CCCC4)CC2)c1` [compound 1426] it was 3 (Class 3 The value of percent of control at 10^−7 M was more than 60% or the value of IC50 was more than 200 nM.).

The record behind these values is patent US20050197350A1, “Novel quinoline, tetrahydroquinazoline, and pyrimidine derivatives and methods of treatment related to the use thereof” (TAISHO PHARMACEUTICAL CO., LTD., priority 2003, published 2005).
